Organism: Rattus norvegicus
Test: Open TG-GATES - Regimen: Single
Format: toxicity, organism-based, Sprague-Dawley
Set-up: regimen Single, gender Male, age 6 weeks
Settings: in vivo, po, 0 mg/kg, route gavage, dose level Control; for Bas / Eos / Lym / MCHC / MCV / Mono / Neu / RBC / Ret / WBC: tissue Blood; for KIDNEY_L / KIDNEY_R / KIDNEY_TOTAL: tissue Kidney; for LIVER: tissue Liver; for ALP / AST / CRE / DBIL / GLC / IP / K / LDH / Na / PL / RALB / TBIL / TC / TP / gamma-GTP: tissue Plasma

CS(=O)(=O)O.Cc1ccc(NC(=O)c2ccc(CN3CCN(C)CC3)cc2)cc1Nc1nccc(-c2cccnc2)n1 [IMATINIB MESYLATE]
Bas (3 h): 0% | Eos (3 h): 0.6% | Lym (3 h): 77.4% | MCHC (3 h): 32.7% | MCV (3 h): 64.2 fL | Mono (3 h): 3% | Neu (3 h): 18.6% | RBC (3 h): 606.4 x10_4/ul | Ret (3 h): 9.4% | WBC (3 h): 98.6 x10_2/uL | KIDNEY_L (3 h): 0.9 g | KIDNEY_R (3 h): 0.9 g | KIDNEY_TOTAL (3 h): 1.7 g | LIVER (3 h): 9.6 g | ALP (3 h): 1737 IU/L | AST (3 h): 82.8 IU/L | CRE (3 h): 0.2 mg/dL | DBIL (3 h): 0.004 mg/dL | GLC (3 h): 184 mg/dL | IP (3 h): 8.3 mg/dL | K (3 h): 4.1 meq/L | LDH (3 h): 215.6 IU/L | Na (3 h): 143.2 meq/L | PL (3 h): 163.8 mg/dL | RALB (3 h): 4.1 g/dL | TBIL (3 h): 0.012 mg/dL | TC (3 h): 86.8 mg/dL | TP (3 h): 5.4 g/dL | gamma-GTP (3 h): 0.8 IU/L | Bas (6 h): 0% | Eos (6 h): 0.4% | Lym (6 h): 80.4% | MCHC (6 h): 33.1% | MCV (6 h): 63.3 fL | Mono (6 h): 3% | Neu (6 h): 15.2% | RBC (6 h): 615.4 x10_4/ul | Ret (6 h): 11.2% | WBC (6 h): 112.4 x10_2/uL | KIDNEY_L (6 h): 0.8 g | KIDNEY_R (6 h): 0.8 g | KIDNEY_TOTAL (6 h): 1.7 g | LIVER (6 h): 8.7 g | ALP (6 h): 1529.4 IU/L | AST (6 h): 72.4 IU/L | CRE (6 h): 0.2 mg/dL | DBIL (6 h): 0.006 mg/dL | GLC (6 h): 175.8 mg/dL | IP (6 h): 9.6 mg/dL | K (6 h): 4.2 meq/L | Na (6 h): 139.7 meq/L | PL (6 h): 152.4 mg/dL | RALB (6 h): 4 g/dL | TBIL (6 h): 0.022 mg/dL | TC (6 h): 86.4 mg/dL | TP (6 h): 5.5 g/dL | gamma-GTP (6 h): 0.9 IU/L | Bas (9 h): 0% | Eos (9 h): 0.8% | Lym (9 h): 76.4% | MCHC (9 h): 33.4% | MCV (9 h): 62.3 fL | Mono (9 h): 2.2% | Neu (9 h): 20.4% | RBC (9 h): 617 x10_4/ul | Ret (9 h): 9% | WBC (9 h): 86 x10_2/uL | KIDNEY_L (9 h): 0.9 g | KIDNEY_R (9 h): 0.9 g | KIDNEY_TOTAL (9 h): 1.8 g | LIVER (9 h): 8.1 g | ALP (9 h): 1372 IU/L | AST (9 h): 76.6 IU/L | CRE (9 h): 0.2 mg/dL | DBIL (9 h): 0.01 mg/dL | GLC (9 h): 170 mg/dL | IP (9 h): 9.5 mg/dL | K (9 h): 3.9 meq/L | LDH (9 h): 175 IU/L | Na (9 h): 140.3 meq/L | PL (9 h): 140.2 mg/dL | RALB (9 h): 4.1 g/dL | TBIL (9 h): 0.016 mg/dL | TC (9 h): 81.8 mg/dL | TP (9 h): 5.5 g/dL | gamma-GTP (9 h): 0.8 IU/L | Bas (24 h): 0% | Eos (24 h): 1% | Lym (24 h): 81.4% | MCHC (24 h): 32.9% | MCV (24 h): 65.5 fL | Mono (24 h): 2.4% | Neu (24 h): 14.6% | RBC (24 h): 607.4 x10_4/ul | Ret (24 h): 9.3% | WBC (24 h): 100.4 x10_2/uL | KIDNEY_L (24 h): 0.9 g | KIDNEY_R (24 h): 0.9 g | KIDNEY_TOTAL (24 h): 1.8 g | LIVER (24 h): 10 g | ALP (24 h): 1682.4 IU/L | AST (24 h): 68.2 IU/L | CRE (24 h): 0.2 mg/dL | DBIL (24 h): 0 mg/dL | GLC (24 h): 199.8 mg/dL | IP (24 h): 7.8 mg/dL | K (24 h): 4.2 meq/L | LDH (24 h): 195.2 IU/L | Na (24 h): 142.7 meq/L | PL (24 h): 149 mg/dL | RALB (24 h): 4.1 g/dL | TBIL (24 h): 0.004 mg/dL | TC (24 h): 75.2 mg/dL | TP (24 h): 5.8 g/dL | gamma-GTP (24 h): 1 IU/L

From ChEMBL document CHEMBL3885861, “Open TG-GATES”
